Measurements as given in the NIST ThermoML archive (doi:10.1016/j.fluid.2007.07.010).
Numbers after ± are expanded uncertainties.

Conditions: Liquid, Ebulliometric method (Recirculating still)

vapor or sublimation pressure (273.15 K) [kPa] | vapor or sublimation pressure (283.15 K) [kPa] | vapor or sublimation pressure (293.15 K) [kPa] | vapor or sublimation pressure (303.15 K) [kPa] | vapor or sublimation pressure (313.15 K) [kPa] | vapor or sublimation pressure (323.15 K) [kPa] | Compound
264 ± 2 | 372 ± 2 | 512 ± 3 | 689 ± 3 | 909 ± 4 | 1176 ± 5 | CC(F)F [1,1-difluoroethane]
104 ± 2 | 150 ± 2 | 208 ± 2 | 284 ± 2 | 378 ± 3 | 495 ± 3 | CCCC [butane]
